Laboratory results as given in ChEMBL document CHEMBL1144991, “Autoradiographic visualization of corticotropin releasing hormone type 1 receptors with a nonpeptide ligand: synthesis of [(76)Br]MJL-1-109-2” (J Med Chem, 2003).

Biological target: T1, Corticotropin-releasing factor receptor 1 (Rattus norvegicus, UniProt P35353)
T1 sequence (P35353 whole entry): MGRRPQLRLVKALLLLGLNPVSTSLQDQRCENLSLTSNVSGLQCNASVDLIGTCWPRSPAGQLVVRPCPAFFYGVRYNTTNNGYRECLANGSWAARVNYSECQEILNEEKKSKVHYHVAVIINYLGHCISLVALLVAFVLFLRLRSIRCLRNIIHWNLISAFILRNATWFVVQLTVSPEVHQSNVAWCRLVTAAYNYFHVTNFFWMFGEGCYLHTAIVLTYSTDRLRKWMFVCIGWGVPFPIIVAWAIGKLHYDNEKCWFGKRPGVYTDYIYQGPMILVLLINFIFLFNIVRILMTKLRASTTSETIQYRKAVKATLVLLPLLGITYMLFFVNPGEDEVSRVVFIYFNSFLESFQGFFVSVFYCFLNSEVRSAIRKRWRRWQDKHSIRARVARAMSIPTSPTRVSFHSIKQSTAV
Test: Affinity for the Corticotropin releasing factor receptor 1 (CRHR1) was determined in rat brain
Assay type: tissue-based

SMILES	Ki
COCCN(CCOC)c1nc(C)nc2c(-c3ccc(Br)cc3Cl)c(C)nn12	1.9 nM
CCCCN(CC)c1nc(C)nc2c1c(C)c(C)n2-c1c(C)cc(C)cc1C [ANTALARMIN]	1 nM
